Measured values published in patent publication US20210161999A1, “COMPOSITIONS AND METHODS RELATED TO OVERCOMING INNATE IMMUNE BARRIERS TO CANCER IMMUNOTHERAPY” (Health Research, Inc., priority 2018, published 2021).
“Also recorded” adds a separate entry of the source.

Tests used:
[1] = test system: iC3b/C3b deposition on PMN; experiment: Deposition of iC3b/C3b on PMN after 1.5 h coculture (clone 3E7/C3b); format: cell-based, human; conditions: PMN and T cells cocultured in treated ASC for 1.5 h (n=3 ASC)
Protocol: FIG. 16. Complement activation in ASC results in C3b/iC3b deposition on PMN and mediates the PMN suppressor phenotype via the AP and classical pathways. A) Activation of complement in ASC principally occurs via the AP and classical pathways, though inter-patient variability was observed. ASC were assessed for complement activity by WIESLAB ELISA kits that detect formation of C5b-9. Percent (%) activity is in relation to the provided positive control (n=38 ASC, **, p=0.0015; ****, p<0.0001). […] C) PMN and T cells were cocultured in media, ASC, Cp40-ASC, or SCR-ASC for 1.5 h. Deposition of iC3b/C3b (clone 3E7/C3b recognizes both C3b and iC3b) on PMN was increased with ASC versus media, while iC3b/C3b deposition on T cells was unaffected by ASC (not shown). iC3b/C3b binding to PMN was decreased by Cp40-ASC, and unaffected by SCR-ASC (n=3 ASC).

PMN = PMN viability (PI neg, Annexin-V neg) after exposure to treated ascites; conditions: 24 h exposure to Cp40-treated ascites
Protocol: (§1) Where indicated, cells were pelleted for immunophenotyping and supernatants were saved for ELISA at time points throughout coculture. Viability was assessed by staining with Annexin V and/or PI (Dead Cell Apoptosis Kit, V13241, Thermo Fisher Scientific), following the manufacturer's protocols. For surface phenotyping and intracellular staining, cells were stained in buffer (DPBS, 1% BSA, 2 mM EDTA) and Cytofix/Cytoperm buffer kit (BD Biosciences), respectively, following the manufacturer's protocols. Data were analyzed using FCS Express 6.

[2] = as above; conditions: human, PMN (neutrophils) exposed to peptide-treated ascites
Protocol: as §1

T cells = experiment: Surface expression of PD-1, LAG-3 and CTLA-4 on stimulated T cells after coculture (flow cytometry); format: cell-based, human; conditions: coculture with Cp40-ASC and PMN, compared to unstimulated (n=6)
Protocol: FIG. 6. Combination of ascites and PMN prevents T cell activation and is independent of exhaustion. T cells (CD3^+) and PMN were used in autologous coculture at 1:1. PMN and/or ascites supernatants (ASC; 50% final well volume) were added to anti-CD3/CD28-stimulated T cells. At 24, 48, and 72 h, T cells were analyzed for surface and intracellular expression of markers for activation, co-stimulation, and function. Surface expression of A) CD62L, B) CD69, C) CD4OL, and D) CD107a were evaluated at baseline (on y-axis) and at 24, 48, and 72 h (n=2). E-M) PD-1, LAG-3, and CTLA-4 expression was evaluated (n=4). CD8^+ T cells at 72 h are represented here in representative MFI overlays (E-G) and quantification (H-J); unstimulated T cells in media, grey solid; anti-CD3/CD28-stimulated, black dashed line; anti-CD3/CD28-stimulated+PMN, purple solid line; anti-CD3/CD28-stimulated+ASC, orange solid line; anti-CD3/CD28-stimulated+ASC+PMN, green solid line. […] N) At 72 h, intracellular expression of IFN-gamma was reduced as compared to stimulated alone (n=3). O-P) Combination of ASC and PMN reduced anti-CD3/CD28-stimulated T cell IL-2 levels (pg/mL) in supernatants to ND after 24 (O) and 72 h (P) of coculture (n=4). Background levels of PMN or ASC were ND; ND=non-detectable. Q) CTL activity of NY-ESO-1157-165-specific CD8^+ T cells directed at SK29 target cells pulsed with the NY-ESO-1 peptide was unaffected by coculture with ASC and/or PMN (n=3). Symbols represent individual samples (n) and bars represent SEM. Statistical comparisons were by Mann-Whitney (*, p<0.05; **, p<0.01; ***, p<0.001; ns, not significant). Results were consistent between CD4^+ and CD8^+ T cells.
Data were analyzed using FCS Express 6.
Fc receptors were blocked to prevent non-specific antibody binding prior to staining (15 min, 4° C.; anti-mouse CD16/CD32, clone 2.4G2; BD Biosciences). For phenotyping of PMN, antibodies targeted to human CD45 (clone REA747), CD15 (VIMC6) (Miltenyi Biotec, Inc.), CD63 (H5C6), CD66b (G10F5), and CD35 (Ell) (Biolegend) were used. […]

CC[C@H](C)[C@H](NC(=O)[C@H](N)Cc1ccc(O)cc1)C(=O)N[C@H]1CSSC[C@@H](C(=O)N(C)[C@H](C(N)=O)[C@@H](C)CC)NC(=O)[C@H](CCCNC(=N)N)NC(=O)[C@H](Cc2c[nH]cn2)NC(=O)[C@H](C)NC(=O)CN(C)C(=O)[C@H](Cc2c[nH]c3ccccc23)NC(=O)[C@H](CC(=O)O)NC(=O)[C@H](CCC(N)=O)NC(=O)[C@H](Cc2cn(C)c3ccccc23)NC(=O)[C@H](C(C)C)NC1=O [Cp40]
iC3b/C3b binding to PMN [1]: reduced; also recorded: decreased
neutrophil viability versus untreated or scramble peptide-treated ascites (PMN): similar
viability at 24 h, 20 µM [2]: 68 ± 8%
CTLA-4 expression on stimulated T cells (T cells): showed an upwards trend; also recorded: upregulated relative to unstimulated T cells
LAG-3 expression on stimulated T cells (T cells): unaffected; also recorded: did not result in upregulation
PD-1 expression on stimulated T cells (T cells): unaffected; also recorded: did not result in upregulation
